Columns and labels:
CB2 receptor = biological target: T1, CB2 receptor (Mus musculus, UniProt P47936); experiment: CB2 receptor binding assay ([3H] CP-55,940 displacement, mouse spleen membranes); conditions: 0.8 nM [3H] CP-55,940, read-out: CB2 affinity
T1 construct: membranes were prepared from frozen mouse spleen; from tissue; host or cells: mouse spleen
Procedure: (§1) As used herein, “binding affinity” is represented by the IC50 value which is the concentration of an analog required to occupy the 50% of the total number (Bmax) of the receptors. The lower the IC50 value, the higher the binding affinity. […] The binding affinities (Ki) are expressed in nanomoles (nM).
(§2) Membranes, previously frozen at −80° C., were thawed on ice. To the stirred suspension was added three volumes of TME (25 mM Tris-HCl buffer, 5 mM MgCl2 and 1 mM EDTA) at a pH 7.4. The suspension was incubated at 4° C. for 30 min. At the end of the incubation, the membranes were pelleted and washed three times with TME.
The treated membranes were subsequently used in the binding assay described below. Approximately 30 μg of membranes were incubated in silanized 96-well microtiter plate with TME containing 0.1% essentially fatty acid-free bovine serum albumin (BSA), 0.8 nM [^3H] […] Radioactivity was detected using MicroScint 20 scintillation cocktail added directly to the dried filterplates, and the filterplates were counted using a Packard Instruments Top-Count. Nonspecific binding was assessed using 100 nM CP-55,940. […] CP-55,940, determined using buffer and 100 nM CP-55,940. The normalized data was analyzed using a 4-parameter nonlinear logistic equation to yield IC50 values. […]

CB1 receptor = biological target: T2, CB1 receptor (Rattus norvegicus, UniProt P20272); experiment: CB1 receptor binding assay ([3H] CP-55,940 displacement, rat forebrain membranes); conditions: CB2 (mouse spleen) versus CB1 (rat forebrain) binding affinity
T2 construct: membranes were prepared from rat forebrain membranes; from tissue; host or cells: rat forebrain
T2 sequence (P20272 whole entry): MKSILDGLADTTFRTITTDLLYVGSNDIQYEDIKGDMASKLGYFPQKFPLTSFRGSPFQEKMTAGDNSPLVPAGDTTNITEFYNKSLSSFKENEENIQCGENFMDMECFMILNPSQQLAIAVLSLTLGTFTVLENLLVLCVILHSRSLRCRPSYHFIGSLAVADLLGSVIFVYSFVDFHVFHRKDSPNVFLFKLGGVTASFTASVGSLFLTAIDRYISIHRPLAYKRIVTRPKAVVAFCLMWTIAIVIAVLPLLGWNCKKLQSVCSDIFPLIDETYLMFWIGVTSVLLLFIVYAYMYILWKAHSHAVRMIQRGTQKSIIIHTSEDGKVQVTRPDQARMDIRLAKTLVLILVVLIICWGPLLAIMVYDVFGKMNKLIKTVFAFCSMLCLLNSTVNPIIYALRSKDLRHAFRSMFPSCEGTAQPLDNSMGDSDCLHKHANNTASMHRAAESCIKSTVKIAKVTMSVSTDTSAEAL
Procedure: as §1
The above articles are incorporated by reference herein.
as §2
The treated membranes were subsequently used in the binding assay described below. Approximately 30 μg of membranes were incubated in silanized 96-well microtiter plate with TME containing 0.1% essentially fatty acid-free bovine serum albumin (BSA), 0.8 nM [^3H] […] Radioactivity was detected using MicroScint 20 scintillation cocktail added directly to the dried filterplates, and the filterplates were counted using a Packard Instruments Top-Count. Nonspecific binding was assessed using 100 nM CP-55,940. […] CP-55,940, determined using buffer and 100 nM CP-55,940. The normalized data was analyzed using a 4-parameter nonlinear logistic equation to yield IC50 values.

[1] = tested on: paw-withdrawal latency to radiant heat in male Sprague-Dawley rats; experiment: Cannabinoid mediated antinociception: paw-withdrawal latency to a thermal nociceptive stimulus (Hargreaves method); assay type: in vivo; conditions: rat, subcutaneous injection in plantar surface of hindpaw, in DMSO, 50 μl; FIGS. 1–13
Procedure: Cannabinoid Mediated Antinociception.
Method. Male Sprague-Dawley rats (Harlan; Indianapolis, Ind.) 200–300 grams at time of testing, were maintained in a climate-controlled room on a 12-h light/dark cycle (lights on at 06:00 h) and food and water were available ad libitum. All of the testing was performed in accordance with the policies and recommendations of the International Association for the Study of Pain (IASP) and the National Institutes of Health (NIH) guidelines for the handling and use of laboratory animals and received approval from the Institutional Animal Care and Use Committee (IACUC) of the University of Arizona.
All drugs were dissolved in dimethyl sulfoxide (DMSO) and were injected subcutaneously in the plantar surface of the hindpaw in a total volume of 50 μl. DMSO given in hindpaw at this volume had no effect. The method of Hargreaves, K.; Dubner, R.; Brown, F.; Flores, C.; and Joris, J., A New Sensitive Method for Measuring Thermal Nociception in Cutaneous Hyperalgesia. […] Paw-withdrawal latency was determined by a photocell that halted both lamp and timer when the paw was withdrawn. The latency to withdrawal of the paw from the radiant heat source was determined both before and after drug or vehicle administration. […]

T1 sequence (P47936 whole entry): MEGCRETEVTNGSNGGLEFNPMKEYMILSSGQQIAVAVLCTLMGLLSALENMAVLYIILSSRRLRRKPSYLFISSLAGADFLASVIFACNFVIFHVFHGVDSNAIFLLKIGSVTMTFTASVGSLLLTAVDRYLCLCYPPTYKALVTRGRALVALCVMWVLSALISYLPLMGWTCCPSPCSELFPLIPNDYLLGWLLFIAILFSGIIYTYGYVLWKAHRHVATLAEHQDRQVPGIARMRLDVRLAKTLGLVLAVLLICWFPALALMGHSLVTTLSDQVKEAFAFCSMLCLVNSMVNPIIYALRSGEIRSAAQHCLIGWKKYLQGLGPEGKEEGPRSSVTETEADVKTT

Row | Compound | Ki (CB2 receptor) [nM] | CB2 selectivity over CB1 (CB1 receptor) [fold] | physiological effects in test animals including analgesia [1]
1 | CCCCCCC(C)(C)c1cc(O)c2c(c1)oc(=O)c1ccc(OC)cc12 [AM1710, 3-(1,1-Dimethylheptyl)-1-hydroxy-9-methoxy-6H-dibenzo[b,d]pyran-6-one] | 0.49 | ~750 | 
2 | CCCCCCC(C)(C)c1cc(O)c2c(c1)oc(=O)c1ccc(O)cc12 [AM1714, 3-(1,1-Dimethylheptyl)-1,9-dihydroxy-6H-dibenzo[b,d]pyran-6-one] |  |  | produced notable physiological effects in test animals including analgesia
